Results reported in patent US20070190523A1 (priority 2002, published 2007).

biological target: WT (Human immunodeficiency virus type 1 group M subtype B, UniProt P04585); assay: cell-based; parameters: species or system HIV; conditions: not given

Row | SMILES | EC50
1 | CCOP(=O)(CCCNC(=O)c1cccc(CN2C(=O)N(Cc3cccc(N)c3)C(Cc3ccccc3)C(O)C(O)C2Cc2ccccc2)c1)OCC (stereo not drawn) | 176 nM
2 | Nc1n[nH]c2ccc(CN3C(=O)N(Cc4cccc(OCP(=O)(OCc5ccccc5)OCc5ccccc5)c4)C(Cc4ccccc4)C(O)C(O)C3Cc3ccccc3)cc12 (stereo not drawn) | 898 nM
3 | CCOP(=O)(COc1cccc(CN2C(=O)N(Cc3ccc4[nH]nc(N)c4c3)C(Cc3ccccc3)C(O)C(O)C2Cc2ccccc2)c1)OCC (stereo not drawn) | 665 nM
4 | Nc1n[nH]c2ccc(CN3C(=O)N(Cc4ccc(OCP(=O)(OCc5ccccc5)OCc5ccccc5)cc4)C(Cc4ccccc4)C(O)C(O)C3Cc3ccccc3)cc12 (stereo not drawn) | 2700 nM
5 | CCOP(=O)(COc1ccc(CN2C(=O)N(Cc3ccc4[nH]nc(N)c4c3)C(Cc3ccccc3)C(O)C(O)C2Cc2ccccc2)cc1)OCC (stereo not drawn) | 2480 nM
6 | CCOP(=O)(COCCCCN1C(=O)N(Cc2ccc3[nH]nc(N)c3c2)C(Cc2ccccc2)C(O)C(O)C1Cc1ccccc1)OCC (stereo not drawn) [CH2OCH2PO3Et2] | 119 nM
7 | Nc1n[nH]c2ccc(CN3C(=O)N(CCCCOCP(=O)(O)O)C(Cc4ccccc4)C(O)C(O)C3Cc3ccccc3)cc12 (stereo not drawn) [CH2OCH2PO3H2] | 1760 nM
8 | CCCCN1C(=O)N(Cc2ccc3[nH]nc(N)c3c2)C(Cc2ccccc2)C(O)C(O)C1Cc1ccccc1 (stereo not drawn) [DMP-851] | 54 nM
9 | CCOP(=O)(COc1ccc(CC2C(O)C(O)C(Cc3ccc(OC)cc3)N(Cc3cccc(N)c3)C(=O)N2Cc2cccc(N)c2)cc1)OCC (stereo not drawn) [OCH3, Ph-mNH2, OCH2PO3Et2] | 63 nM
10 | Nc1n[nH]c2ccc(CN3C(=O)N(Cc4cccc(OCP(=O)(O)O)c4)C(Cc4ccccc4)C(O)C(O)C3Cc3ccccc3)cc12 (stereo not drawn) [m-OCH2PO3H2] | > 12000 nM
11 | Nc1n[nH]c2ccc(CN3C(=O)N(Cc4cccc(OCP(=O)(O)Oc5ccccc5)c4)C(Cc4ccccc4)C(O)C(O)C3Cc3ccccc3)cc12 (stereo not drawn) [m-OCH2PO3HPh] | 1750 nM
12 | Nc1n[nH]c2ccc(CN3C(=O)N(Cc4cccc(OCP(=O)(Oc5ccccc5)Oc5ccccc5)c4)C(Cc4ccccc4)C(O)C(O)C3Cc3ccccc3)cc12 (stereo not drawn) [m-OCH2PO3Ph2] | 1350 nM
13 | Nc1n[nH]c2ccc(CN3C(=O)N(Cc4cccc(O)c4)C(Cc4ccccc4)C(O)C(O)C3Cc3ccccc3)cc12 (stereo not drawn) [m-OH] | 151 nM

test system: wild-type HIV-1 strain IIIB; assay: microbe, parasite or virus in culture; type: cell-based; conditions: Human immunodeficiency virus 1, IIIB, MT2

Row | SMILES | EC50
14 | CCOP(=O)(COc1ccc2c(c1)CCN(CC(NC(=O)OC1COC3OCCC13)C(O)CN(CC(C)C)S(=O)(=O)c1ccc(OC)cc1)C2)OCC (stereo not drawn) | 50 to 500 nM
15 | COc1ccc(S(=O)(=O)N(CC(C)C)CC(O)C(Cc2ccc(C)cc2)NC(=O)OC2COC3OCCC23)cc1 (stereo not drawn) | < 50 nM
16 | CC(C)CN(CC(O)C(Cc1ccc(O)cc1)NC(=O)OC1COC2OCCC12)S(=O)(=O)c1ccc(OCP(=O)(O)O)cc1 (stereo not drawn) [OH, OH] | > 5000 nM
17 | CCOP(=O)(COc1ccc(CC(NC(=O)OC2CCOC2)C(O)CN(CC(C)C)S(=O)(=O)c2ccc(OC)cc2)cc1)OCC (stereo not drawn) [OMe, OEt] | < 50 nM
18 | CCOC(=O)C(CC)NP(=O)(COc1ccc(CC(NC(=O)OC2COC3OCCC23)C(O)CN(CC(C)C)S(=O)(=O)c2ccc(OC)cc2)cc1)NC(CC)C(=O)OCC (stereo not drawn) [drawing 606 R1=Aba-Et R2=Aba-Et] | < 50 nM
19 | CCOC(=O)COP(=O)(COc1ccc(CC(NC(=O)OC2COC3OCCC23)C(O)CN(CC(C)C)S(=O)(=O)c2ccc(OC)cc2)cc1)OCC(=O)OCC (stereo not drawn) [drawing 607 R1=Glc-Et R2=Glc-Et] | 500 to 5000 nM

same assay, conditions: Human immunodeficiency virus 1, IIIB, MT2, Table 10, class symbols

Row | SMILES | EC50
20 | CCOC(=O)C(C)OP(=O)(Cc1ccc2c(c1)CCN(CC(NC(=O)OC1COC3OCCC13)C(O)CN(CC(C)C)S(=O)(=O)c1ccc(OC)cc1)C2)Oc1ccccc1 (stereo not drawn) | 50 to 500 nM
21 | CCOC(=O)COP(=O)(COc1ccc(CC(NC(=O)OC2COC3OCCC23)C(O)CN(CC(C)C)S(=O)(=O)c2ccc(OC)cc2)cc1)Oc1ccccc1 (stereo not drawn) [drawing 609 R1=OPh R2=Glc-Et] | < 50 nM

same assay, conditions: read-out: Anti-HIV-1 Cell Culture Activity EC50

Row | SMILES | EC50
22 | CCCCOC(=O)C(Cc1ccccc1)NP(=O)(COc1ccc(CC(NC(=O)OC2COC3OCCC23)C(O)CN(CC(C)C)S(=O)(=O)c2ccc(OC)cc2)cc1)NC(Cc1ccccc1)C(=O)OCCCC (stereo not drawn) [Example 16j] | 35 ± 7 nM

same assay, conditions: read-out: EC50

Row | SMILES | EC50
23 | COc1ccc(S(=O)(=O)N(CC(C)C)CC(O)C(Cc2ccc(NCP(=O)(O)O)cc2)NC(=O)OC2COC3OCCC23)cc1 (stereo not drawn) | 50 to 500 nM
24 | Cc1ccc(C(=O)N[C@@H](Cc2ccc(OCP(=O)(Oc3ccccc3)Oc3ccccc3)cc2)[C@H](O)CN(CC(C)C)S(=O)(=O)c2ccc(N)cc2)cc1O | 500 to 5000 nM
25 | CC(C)CN(C[C@@H](O)[C@H](Cc1ccc(OCP(=O)(OCc2ccccc2)OC(C)C(=O)OCc2ccccc2)cc1)NC(=O)O[C@H]1CO[C@H]2OCC[C@H]21)S(=O)(=O)c1ccc(OCc2ccccc2)cc1 (stereo partly drawn) | 500 to 5000 nM

test system: mutant HIV-1 with I84V/L90M mutations; assay: not given; type: cell-based; conditions: I84V/L90M mutant

Row | SMILES | I84V/L90M fold change
26 | COc1ccc(S(=O)(=O)N(CC(C)C)CC(O)C(Cc2ccc(C)cc2)NC(=O)OC2COC3OCCC23)cc1 (stereo not drawn) | + (>3 to ≦10)
27 | CCOP(=O)(COc1ccc(CC(NC(=O)OC2CCOC2)C(O)CN(CC(C)C)S(=O)(=O)c2ccc(OC)cc2)cc1)OCC (stereo not drawn) [OMe, OEt] | ++ (>10 to ≦30)

same assay, conditions: fold difference in EC50 vs wild type, class symbols

Row | SMILES | I84V/L90M fold change
28 | CCOC(=O)C(C)OP(=O)(Cc1ccc2c(c1)CCN(CC(NC(=O)OC1COC3OCCC13)C(O)CN(CC(C)C)S(=O)(=O)c1ccc(OC)cc1)C2)Oc1ccccc1 (stereo not drawn) | + (>3 to ≦10)
29 | CCOP(=O)(COc1ccc2c(c1)CCN(CC(NC(=O)OC1COC3OCCC13)C(O)CN(CC(C)C)S(=O)(=O)c1ccc(OC)cc1)C2)OCC (stereo not drawn) | + (>3 to ≦10)
30 | COc1ccc(S(=O)(=O)N(CC(C)C)CC(O)C(Cc2ccc(OCP(=O)(OC(C)C)OC(C)C)cc2)NC(=O)OC2COC3OCCC23)cc1 (stereo not drawn) [drawing 602 R1=OiPr R2=OiPr] | − (≦3)
31 | CCOP(=O)(OCC)c1ccc(CC(NC(=O)OC2COC3OCCC23)C(O)CN(CC(C)C)S(=O)(=O)c2ccc(OC)cc2)cc1 (stereo not drawn) [drawing 604 R1=OEt R2=OEt] | − (≦3)
32 | CCNP(=O)(COc1ccc(CC(NC(=O)OC2COC3OCCC23)C(O)CN(CC(C)C)S(=O)(=O)c2ccc(OC)cc2)cc1)NCC (stereo not drawn) [drawing 606 R1=NHEt R2=NHEt] | − (≦3)
33 | CCOC(=O)C(NP(=O)(COc1ccc(CC(NC(=O)OC2COC3OCCC23)C(O)CN(CC(C)C)S(=O)(=O)c2ccc(OC)cc2)cc1)NC(C(=O)OCC)C(C)C)C(C)C (stereo not drawn) [drawing 606 R1=Val-Et R2=Val-Et] | − (≦3)
34 | CCOC(=O)COP(=O)(COc1ccc(CC(NC(=O)OC2COC3OCCC23)C(O)CN(CC(C)C)S(=O)(=O)c2ccc(OC)cc2)cc1)OCC(=O)OCC (stereo not drawn) [drawing 607 R1=Glc-Et R2=Glc-Et] | − (≦3)
35 | CCOC(=O)C(C)OP(=O)(COc1ccc(CC(NC(=O)OC2COC3OCCC23)C(O)CN(CC(C)C)S(=O)(=O)c2ccc(OC)cc2)cc1)OC(C)C(=O)OCC (stereo not drawn) [drawing 607 R1=Lac-Et R2=Lac-Et] | − (≦3)
36 | COc1ccc(S(=O)(=O)N(CC(C)C)CC(O)C(Cc2ccc(OCP(=O)(OC(C)C(=O)OC(C)C)OC(C)C(=O)OC(C)C)cc2)NC(=O)OC2COC3OCCC23)cc1 (stereo not drawn) [drawing 607 R1=Lac-iPr R2=Lac-iPr] | − (≦3)
37 | CCOC(=O)C(C)NP(=O)(COc1ccc(CC(NC(=O)OC2COC3OCCC23)C(O)CN(CC(C)C)S(=O)(=O)c2ccc(OC)cc2)cc1)OCc1ccccc1 (stereo not drawn) [drawing 608 R1=OBn R2=Ala-Et] | − (≦3)
38 | COc1ccc(S(=O)(=O)N(CC(C)C)CC(O)C(Cc2ccc(OCP(=O)(NC(C)C(=O)OC(C)C)Oc3ccccc3)cc2)NC(=O)OC2COC3OCCC23)cc1 (stereo not drawn) [drawing 608 R1=OPh R2=(D)Ala-iPr] | − (≦3)
39 | CCCCOC(=O)C(C)NP(=O)(COc1ccc(CC(NC(=O)OC2COC3OCCC23)C(O)CN(CC(C)C)S(=O)(=O)c2ccc(OC)cc2)cc1)Oc1ccccc1 (stereo not drawn) [drawing 608 R1=OPh R2=Ala-Bu] | − (≦3)
40 | COC(=O)C(C)NP(=O)(COc1ccc(CC(NC(=O)OC2COC3OCCC23)C(O)CN(CC(C)C)S(=O)(=O)c2ccc(OC)cc2)cc1)Oc1ccccc1 (stereo not drawn) [drawing 608 R1=OPh R2=Ala-Me] | − (≦3)
41 | COc1ccc(S(=O)(=O)N(CC(C)C)CC(O)C(Cc2ccc(OCP(=O)(NC(C)C(=O)OC(C)C)Oc3ccccc3)cc2)NC(=O)OC2COC3OCCC23)cc1 (stereo not drawn) [drawing 608 R1=OPh R2=Ala-iPr] | − (≦3)
42 | CCCCOC(=O)CNP(=O)(COc1ccc(CC(NC(=O)OC2COC3OCCC23)C(O)CN(CC(C)C)S(=O)(=O)c2ccc(OC)cc2)cc1)Oc1ccccc1 (stereo not drawn) [drawing 608 R1=OPh R2=Gly-Bu] | − (≦3)
43 | COc1ccc(S(=O)(=O)N(CC(C)C)CC(O)C(Cc2ccc(OCP(=O)(O)OC(C)C(=O)O)cc2)NC(=O)OC2COC3OCCC23)cc1 [drawing 609 R1=OH R2=(R)Lac-OH] | − (≦3)
44 | COc1ccc(S(=O)(=O)N(CC(C)C)CC(O)C(Cc2ccc(OCP(=O)(O)OC(C)C(=O)O)cc2)NC(=O)OC2COC3OCCC23)cc1 (stereo not drawn) [drawing 609 R1=OH R2=Lac-OH] | − (≦3)
45 | CCOC(=O)COP(=O)(COc1ccc(CC(NC(=O)OC2COC3OCCC23)C(O)CN(CC(C)C)S(=O)(=O)c2ccc(OC)cc2)cc1)Oc1ccccc1 (stereo not drawn) [drawing 609 R1=OPh R2=Glc-Et] | − (≦3)
46 | CCCCOC(=O)C(C)OP(=O)(COc1ccc(CC(NC(=O)OC2COC3OCCC23)C(O)CN(CC(C)C)S(=O)(=O)c2ccc(OC)cc2)cc1)Oc1ccccc1 (stereo not drawn) [drawing 609 R1=OPh R2=Lac-Bu] | − (≦3)
47 | COc1ccc(S(=O)(=O)N(CC(C)C)CC(O)C(Cc2ccc(OCP(=O)(Oc3ccccc3)OC(C)C(=O)OC(C)C)cc2)NC(=O)OC2COC3OCCC23)cc1 (stereo not drawn) [drawing 609 R1=OPh R2=Lac-iPr] | − (≦3)
48 | CCOP(=O)(CON=Cc1ccc(CC(NC(=O)OC2COC3OCCC23)C(O)CN(CC(C)C)S(=O)(=O)c2ccc(OC)cc2)cc1)OCC (stereo not drawn) [drawing 615 R1=Et R2=Et] | − (≦3)

test system: recombinant HIV-1 strains with resistance mutations in the protease gene; assay: Cross-Resistance Profile Assay, whole panel; type: cell-based; conditions: {}

Row | SMILES | Total No. of Resistant Viruses
49 | CC(C)CN(C[C@@H](O)[C@H](Cc1ccccc1)NC(=O)O[C@H]1CCOC1)S(=O)(=O)c1ccc(N)cc1 [Amprenavir, amprenavir] | 4
50 | COc1ccc(S(=O)(=O)N(CC(C)C)C[C@@H](O)[C@H](Cc2ccccc2)NC(=O)O[C@H]2CO[C@H]3OCC[C@H]32)cc1 [Example 94-003] | 3
51 | CC(C)(C)NC(=O)[C@@H]1CN(Cc2cccnc2)CCN1C[C@@H](O)C[C@@H](Cc1ccccc1)C(=O)N[C@H]1c2ccccc2C[C@H]1O [Indinavir] | 8
52 | Cc1c(O)cccc1C(=O)N[C@@H](CSc1ccccc1)[C@H](O)CN1C[C@H]2CCCC[C@H]2C[C@H]1C(=O)NC(C)(C)C [Nelfinavir, nelfinavir] | 9
53 | CC(C)c1nc(CN(C)C(=O)N[C@H](C(=O)N[C@@H](Cc2ccccc2)C[C@H](O)[C@H](Cc2ccccc2)NC(=O)OCc2cncs2)C(C)C)cs1 [Ritonavir] | 10
54 | CC(C)(C)NC(=O)[C@@H]1C[C@@H]2CCCC[C@@H]2CN1C[C@@H](O)[C@H](Cc1ccccc1)NC(=O)[C@H](CC(N)=O)NC(=O)c1ccc2ccccc2n1 [Saquinavir] | 4
